Results published in patent US20260232767A1, “INTERLEUKIN-23 RECEPTOR ANTAGONIST PEPTIDES FOR USE IN THE TREATMENT OF PSORIASIS” (Janssen Pharmaceutica NV, priority 2023, published 2026).

System: subjects with moderate-to-severe plaque psoriasis
Assay: Safety, adverse events, Example 2 through Week 56
Assay type: in vivo, human
From the text: The LTE safety analysis was based on randomized participants in Example who entered the present long-term extension study and received at least one dose of study intervention (including a partial dose) during the study period.

[1] = 25 mg BID, Week 16 through Week 56
[2] = 25 mg BID, LTE Safety analysis set

## CC(=O)NCCCC[C@@H]1NC(=O)[C@H](Cc2c[nH]c3c(C)cccc23)NC(=O)[C@H]([C@@H](C)O)NC(=O)[C@H](CC(N)=O)NC(=O)[C@@H](NC(C)=O)C(C)(C)SSC(C)(C)[C@@H](C(=O)N[C@@H](Cc2ccc(OCCN)cc2)C(=O)N[C@@H](Cc2ccc3ccccc3c2)C(=O)NC2(C(=O)N[C@@H](CCC(=O)O)C(=O)N[C@@H](CC(N)=O)C(=O)N[C@@H](Cc3cccnc3)C(=O)N(C)CC(N)=O)CCOCC2)NC1=O [IL-23 receptor antagonist peptide, Ac-[Pen]*-N-T-[W(7-Me)]-[Lys(Ac)]-[Pen]*-Phe[4-(2-aminoethoxy)]-[2-Nal]-[THP]-E-N-[3-Pal]-Sarc-NH2 (*[Pen]-[Pen]* formdisulfidebond)]
  Subjects with Bronchitis bacterial: 0
[1]
  Number of subjects with treatment-emergent AE: Cholelithiasis: 0
  Number of subjects with treatment-emergent AE: Ear and labyrinth disorders: 0
  Number of subjects with treatment-emergent AE: Endocrine disorders: 1
  Number of subjects with treatment-emergent AE: Eye disorders: 1
  Number of subjects with treatment-emergent AE: Eyelid skin dryness: 1
  Number of subjects with treatment-emergent AE: Goiter: 1
  Number of subjects with treatment-emergent AE: Hepatobiliary disorders: 0
  Number of subjects with treatment-emergent AE: Hypertransaminasemia: 0
  Number of subjects with treatment-emergent AE: Immune system disorders: 0
  Number of subjects with treatment-emergent AE: Insomnia: 1
  Number of subjects with treatment-emergent AE: Ocular cyst: 0
  Number of subjects with treatment-emergent AE: Psychiatric disorders: 1
  Number of subjects with treatment-emergent AE: Retinal vein occlusion: 0
  Number of subjects with treatment-emergent AE: Seasonal allergy: 0
  Number of subjects with treatment-emergent AE: Vertigo: 0
  Subjects with treatment-emergent AE: Endocrine disorders (%): (2.5%)
  Subjects with treatment-emergent AE: Eye disorders (%): (2.5%)
  Subjects with treatment-emergent AE: Eyelid skin dryness (%): (2.5%)
  Subjects with treatment-emergent AE: Goiter (%): (2.5%)
  Subjects with treatment-emergent AE: Insomnia (%): (2.5%)
  Subjects with treatment-emergent AE: Psychiatric disorders (%): (2.5%)
  Subjects with treatment-emergent AE: Ventricular dysfunction (%): (2.5%)
[2]
  Subjects with 1 or more Serious Infections and infestations: 0
  Subjects with adverse event: Alanine aminotransferase increased: 0
  Subjects with adverse event: Arthralgia: 0
  Subjects with adverse event: Aspartate aminotransferase increased: 0
  Subjects with adverse event: Vomiting: 0
  Subjects with serious adverse event: Cerebrovascular accident: 0
  Subjects with serious adverse event: Coronary artery disease: 0
  Subjects with serious adverse event: Diverticulitis: 0
  Subjects with serious adverse event: Foot deformity: 0
  Subjects with serious adverse event: Intervertebral disc protrusion: 0
  Subjects with serious adverse event: Non-cardiac chest pain: 0
  Subjects with serious adverse event: Uterine leiomyoma: 0
25 mg BID, Week 16-56
  Subjects with AE leading to discontinuation: Alanine aminotransferase increased: 0
  Subjects with AE leading to discontinuation: Aspartate aminotransferase increased: 0
  Subjects with AE leading to discontinuation: Ear and labyrinth disorders: 0
  Subjects with AE leading to discontinuation: Gamma-glutamyltransferase increased: 0
  Subjects with AE leading to discontinuation: Investigations: 0
  Subjects with AE leading to discontinuation: Vertigo: 0
  Subjects with AE leading to discontinuation: Vomiting: 0
  Subjects with COVID-19 associated AE of interest: SARS-CoV-2 test positive: 0
  Subjects with treatment-emergent AE: Alanine aminotransferase increased: 0
  Subjects with treatment-emergent AE: Arthralgia: 0
  Subjects with treatment-emergent AE: Aspartate aminotransferase increased: 0
  Subjects with treatment-emergent AE: Vomiting: 0
  Subjects with treatment-emergent serious AE: Cerebrovascular accident: 0
  Subjects with treatment-emergent serious AE: Coronary artery disease: 0
  Subjects with treatment-emergent serious AE: Diverticulitis: 0
  Subjects with treatment-emergent serious AE: Foot deformity: 0
  Subjects with treatment-emergent serious AE: General disorders and administration site conditions: 0
  Subjects with treatment-emergent serious AE: Infections and infestations: 0
  Subjects with treatment-emergent serious AE: Intervertebral disc protrusion: 0
  Subjects with treatment-emergent serious AE: Musculoskeletal and connective tissue disorders: 0
  Subjects with treatment-emergent serious AE: Neoplasms benign, malignant and unspecified (incl cysts and polyps): 0
  Subjects with treatment-emergent serious AE: Nervous system disorders: 0
  Subjects with treatment-emergent serious AE: Non-cardiac chest pain: 0
  Subjects with treatment-emergent serious AE: Uterine leiomyoma: 0
25 mg BID, through Week 56
  Acrochordon: % of subjects: (2.4%)
  Acrochordon: number of subjects: 1
  Actinic keratosis: number of subjects: 0
  Alopecia: number of subjects: 0
  Asthenia: % of subjects: (2.4%)
  Asthenia: number of subjects: 1
  Asthma: number of subjects: 0
  Atrioventricular block first degree: number of subjects: 0
  Basal cell carcinoma: number of subjects: 0
  Blood and lymphatic system disorders: number of subjects: 0
  Bronchitis chronic: number of subjects: 0
  Bundle branch block right: number of subjects: 0
  Cardiac disorders: % of subjects: (2.4%)
  Cardiac disorders: number of subjects: 1
  Chills: % of subjects: (2.4%)
  Chills: number of subjects: 1
  Cholelithiasis: number of subjects: 0
  Chronic obstructive pulmonary disease: number of subjects: 0
  Coronary artery disease: number of subjects: 0
  Cough: number of subjects: 0
  Decreased appetite: number of subjects: 0
  Depression: number of subjects: 0
  Dermal cyst: number of subjects: 0
  Dermatitis acneiform: number of subjects: 0
  Dermatitis contact: % of subjects: (2.4%)
  Dermatitis contact: number of subjects: 1
  Diabetes mellitus: % of subjects: (2.4%)
  Diabetes mellitus: number of subjects: 1
  Diffuse alopecia: number of subjects: 0
  Dysuria: number of subjects: 0
  Ear and labyrinth disorders: number of subjects: 0
  Endocrine disorders: % of subjects: (2.4%)
  Endocrine disorders: number of subjects: 1
  Eye disorders: % of subjects: (2.4%)
  Eye disorders: number of subjects: 1
  Eyelid skin dryness: % of subjects: (2.4%)
  Eyelid skin dryness: number of subjects: 1
  Fatigue: number of subjects: 0
  General disorders and administration site conditions: % of subjects: (4.9%)
  General disorders and administration site conditions: number of subjects: 2
  Goiter: % of subjects: (2.4%)
  Goiter: number of subjects: 1
  Haemochromatosis: number of subjects: 0
  Hand dermatitis: number of subjects: 0
  Hematuria: number of subjects: 0
  Hepatobiliary disorders: number of subjects: 0
  Hypercholesterolemia: number of subjects: 0
  Hyperglycemia: number of subjects: 0
  Hyperlipidemia: % of subjects: (2.4%)
  Hyperlipidemia: number of subjects: 1
  Hypertension: % of subjects: (4.9%)
  Hypertension: number of subjects: 2
  Hypertransaminasemia: number of subjects: 0
  Hypertriglyceridemia: number of subjects: 0
  Hypoacusis: number of subjects: 0
  Immune system disorders: number of subjects: 0
  Influenza like illness: % of subjects: (2.4%)
  Influenza like illness: number of subjects: 1
  Insomnia: % of subjects: (2.4%)
  Insomnia: number of subjects: 1
  Intertrigo: number of subjects: 0
